Reference: BindingDB's records for doi:10.1021/jm9606599 (National Institute of Diabetes and Digestive and Kidney …, 1997)

assay: Sigma receptor binding was determined by labeling with radioligand [3H](+)-pentazocine on frozen membranes obtained from frozen guinea pig brain

| SMILES | IC50 |
| --- | --- |
| Fc1ccc(C(OCCN2CCN(C/C=C/c3ccccc3)CC2)c2ccc(F)cc2)cc1 | 51 nM |
| Fc1ccc(C(OCCN2CCN(CCCc3ccco3)CC2)c2ccc(F)cc2)cc1 [1-{2-[Bis-(4-fluoro-phenyl)-methoxy]-ethyl}-4-(3-furan-2-yl-propyl)-piperazine] | 62 nM |
| Fc1ccc(C(OCCN2CCN(CCCc3cccnc3)CC2)c2ccc(F)cc2)cc1 [1-{2-[Bis-(4-fluoro-phenyl)-methoxy]-ethyl}-4-(3-pyridin-3-yl-propyl)-piperazine] | 79 nM |
| Fc1ccc(C(OCCN2CCN(CCCc3cccs3)CC2)c2ccc(F)cc2)cc1 [1-{2-[Bis-(4-fluoro-phenyl)-methoxy]-ethyl}-4-(3-thiophen-2-yl-propyl)-piperazine] | 38 nM |
| Fc1ccc(C(OCCN2CCN(C/C=C/c3ccco3)CC2)c2ccc(F)cc2)cc1 [1-{2-[Bis-(4-fluoro-phenyl)-methoxy]-ethyl}-4-((E)-3-furan-2-yl-allyl)-piperazine] | 43 nM |
| Fc1ccc(C(OCCN2CCN(C/C=C/c3cccnc3)CC2)c2ccc(F)cc2)cc1 [1-{2-[Bis-(4-fluoro-phenyl)-methoxy]-ethyl}-4-((E)-3-pyridin-3-yl-allyl)-piperazine] | 59 nM |
| Fc1ccc(C(OCCN2CCN(C/C=C/c3cccs3)CC2)c2ccc(F)cc2)cc1 [1-{2-[Bis-(4-fluoro-phenyl)-methoxy]-ethyl}-4-((E)-3-thiophen-2-yl-allyl)-piperazine] | 41 nM |
